# According to patent US20240270748A1 (Merck Patent GmbH, priority 2021, published 2024):
# Structures can show the parent of a compound that is named as a salt.
# Test system: YAP-TEAD interaction
# Experiment: SK-HEP-1 reporter assay (8xTEAD responsive elements driving NanoLuc luciferase)
# Type: cell-based
# Settings: Homo sapiens, SK-HEP1, SK-HEP-1 reporter assay; class symbols
# Protocol: To identify inhibitors of YAP-TEAD interaction, 8×TEAD responsive elements driving the NanoLuc® luciferase gene were stably integrated into SK-HEP-1 cells (ECACC #: 91091816).
# For the assay, cells were treated in duplicates with the test compounds in a 10-point dose, with the top concentration starting at 30 μM (final concentration in assay). After a 24 hour incubation at 37° C., 95% rH, and 5% CO2, a luciferase substrate/lysis reagent mix (NanoGlo™, Promega) was added to the cells, allowing the quantification of cellular luciferase activity.
# Cell Media: The cells were cultured in the following media: MEM, +10% FBS, +1× GlutaMAX, +1 mM Sodium-Pyruvate, +100 μM Non-essential amino acids, +0.1 mg/ml Hygromycin. The media used for the assay was: MEM (w/o Phenol Red), +10% FBS, +1× GlutaMAX, +1 mM Sodium-Pyruvate, +100 μM Non-essential amino acids, +0.5% Pen/Strep
# Reagents: The reagents used are listed below:
# Cell culture: The cells were examined using an inverted microscope to check for health and cell density. To dissociate adherent cells, the monolayer of cells was washed once with pre-warmed PBS. After removing the PBS, 3 ml pre-warmed Accutase® was added to a F75 flask, dispersed evenly and the flask was allowed to sit in incubator for ˜4-5 minutes.
# When a single cell suspension was obtained, 7 ml of prewarmed growth media was added and resuspended with the cells. The cell suspension was transferred to a sterile 15 ml conical centrifuge tube, and spun for 5 min at 300×g, RT. The supernatant was discarded and the pellet was resuspended in 10 ml of pre-warmed growth media.
# The total cell count was determined, and 20 μl of the desired cell number was added to each well of a 384 well plate using a Multidrop Combi. The plates were then incubated for 24 hours at 37° C., 95% rH, and 5% C02.
# Compound treatment: 24 hours after seeding, the cells were treated with compounds.
# A 1:333 dilution of compounds, diluted in DMSO, was made to get a final concentration of 0.3% DMSO per well. To transfer the compounds to the assay plate, […] was shot from Labcyte low dead volume plates to the cell plates containing 20 μl media/well with the ECHO 555 liquid handling system.
# After treatment, the cells were fed with 20 μl fresh pre-warmed assay media using a Multidrop combi.
# The assay plates were then incubated for another 24 h at 37° C., 95% rH, and 5% CO2.
# Luciferase readout: 24 h after treatment, the plates were taken out of the incubator and were allowed to equilibrate to RT. 30 μl of NanoGlo® reagent was added to the plates in the dark. Plates were shaken for 20 min on a Teleshake (˜1500 rpm) in the dark. The luminescence was then measured using an EnVision microplate reader. The IC50 values were generated using Genedata Screener®.
row,IC50 [nM],SMILES
1,10 to 100,"Cc1snc2c1c1cc(C(=O)NCc3cnccn3)ccc1n2-c1ccc(C(F)(F)F)cc1 [Example C78, 3-methyl-N-[(pyrazin-2-yl)methyl]-8-[4-(trifluoromethyl)phenyl]-8H-[1,2]thiazolo[3,4-b]indole-5-carboxamide]"
2,100 to 10000,"Cn1cc2c3cc(C(=O)N4CC(CF)C4)ccc3n(-c3ccc(C(F)(F)F)cc3)c2n1 [Example C60, 3-(fluoromethyl)-1-{2-methyl-8-[4-(trifluoromethyl)phenyl]-2H,8H-pyrazolo[3,4-b]indole-5-carbonyl}azetidine]"
3,100 to 10000,"Cn1cnc2c1c1cc(CO)ccc1n2-c1ccc(C(F)(F)F)cc1 [Example C132, {1-methyl-4-[4-(trifluoromethyl)phenyl]-1H,4H-imidazo[4,5-b]indol-7-yl}methanol]"
4,100 to 10000,"Cn1cc2c3cc(NC(=O)Cc4cccnc4)ccc3n(-c3ccc(C(F)(F)F)cc3)c2n1 [Example C23, N-{2-methyl-8-[4-(trifluoromethyl)-phenyl]-2H,8H-pyrazolo[3,4-b]indol-5-yl}-2-(pyridin-3-yl)acetamide]"
5,100 to 10000,"Cn1nc2c3cc(C(=O)NC(CO)c4nncn4C)ccc3n(-c3ccc(C(F)(F)F)cc3)c2n1 (centres unmarked) [Example C274, N-[2-hydroxy-1-(4-methyl-4H-1,2,4-triazol-3-yl)ethyl]-2-methyl-4-[4-(trifluoromethyl)phenyl]-2H,4H-[1,2,3]triazolo[4,5-b]indole-7-carboxamide]"
6,100 to 10000,"C[C@H](CCN)NC(=O)c1ccc2c(c1)c1cn(C)nc1n2-c1ccc(C(F)(F)F)cc1 [Example C27, N-[(2R)-4-aminobutan-2-yl]-2-methyl-8-[4-(trifluoromethyl)phenyl]-2H,8H-pyrazolo[3,4-b]indole-5-carboxamide]"
7,> 10000,"CCCn1cc2c3cc(C(=O)N[C@@H](CO)c4ccccn4)ccc3n(-c3ccc(C(F)(F)F)cc3)c2n1 [Example C255, N-[(1R)-2-hydroxy-1-(pyridin-2-yl)ethyl]-2-propyl-8-[4-(trifluoromethyl)phenyl]-2H,8H-pyrazolo[3,4-b]indole-5-carboxamide]"

# Continued, molecule first:
row,SMILES,IC50 [nM]
1,"Cn1nc2c3cc(C(=O)N=[S@@](=O)(CCO)Cc4cccnc4)ccc3n(-c3ccc(C(F)(F)F)cc3)c2n1 (single isomer, unassigned) [Example C238]",10 to 100
2,C[C@H](NC(=O)c1ccc2c(c1)c1cn(C)nc1n2-c1ccc(C(F)(F)F)cc1)c1ccnc(N)c1 [Example C264],100 to 10000
3,"Cn1cc2c3cc(C(=O)N4CC[C@@H](O)C4)ccc3n(-c3ccc(C(F)(F)F)cn3)c2n1 [Example C152, (3R)-1-{2-methyl-8-[5-(trifluoromethyl)pyridin-2-yl]-2H,8H-pyrazolo[3,4-b]indole-5-carbonyl}pyrrolidin-3-ol]",> 10000
4,"Cn1cc2c3cc(NC(=O)CCl)ccc3n(-c3ccc(C(F)(F)F)cc3)c2n1 [Example 23, 2-chloro-N-[2-methyl-8-[4-(trifluoromethyl)phenyl]pyrazolo[3,4-b]indol-5-yl]acetamide]",> 10000
5,"Cn1cc2c3cc(C4CC(F)(F)C(=O)N4)ccc3n(-c3ccc(C(F)(F)F)cc3)c2n1 (centres unmarked) [Example C275, 3,3-difluoro-5-{2-methyl-8-[4-(trifluoromethyl)phenyl]-2H,8H-pyrazolo[3,4-b]indol-5-yl}pyrrolidin-2-one]",10 to 100
6,"CNCCC(C)NC(=O)c1ccc2c(c1)c1cn(C)nc1n2-c1ccc(C(F)(F)F)cc1 (centres unmarked) [Example C58, 2-methyl-N-[4-(methylamino)butan-2-yl]-8-[4-(trifluoromethyl)phenyl]-2H,8H-pyrazolo[3,4-b]indole-5-carboxamide]",100 to 10000
7,"Cc1snc2c1c1cc(C(=O)N[C@H](CO)C3CCC3)ccc1n2-c1ccc(C(F)(F)F)cc1 [Example C100, N-[(1S)-1-cyclobutyl-2-hydroxyethyl]-3-methyl-8-[4-(trifluoromethyl)phenyl]-8H-[1,2]thiazolo[3,4-b]indole-5-carboxamide]",100 to 10000
8,"Cn1nc2c3cc(C(=O)N=[S@](=O)(CCO)Cc4cccnc4)ccc3n(-c3ccc(C(F)(F)F)cc3)c2n1 (single isomer, unassigned) [Example C235]",10 to 100
9,"Cc1snc2c1c1cc(C(=O)N3CC[C@H](O)C3)ccc1n2-c1ccc(C(F)(F)F)cc1 [Example C49, (3S)-1-{3-methyl-8-[4-(trifluoromethyl)phenyl]-8H-[1,2]thiazolo [3,4-b]indole-5-carbonyl}pyrrolidin-3-ol]",100 to 10000
10,"Cn1cc2c3cc(C(=O)N[C@@H](CO)c4ccccn4)cnc3n(-c3ccc(C(F)(F)F)cc3)c2n1 [Example C228, N-[(1R)-2-hydroxy-1-(pyridin-2-yl)ethyl]-4-methyl-7-[4-(trifluoromethyl)phenyl]-4,5,7,9-tetraazatricyclo[6.4.0.0^2,6]dodeca-1(8),2,5,9,11-pentaene-11-carboxamide]",10 to 100
11,"COCCS(=O)(CCN)=NC(=O)c1ccc2c(c1)c1cn(C)nc1n2-c1ccc(C(F)(F)F)cc1 (centres unmarked) [Example C146, N-[(2-aminoethyl)(2-methoxyethyl)oxo-λ^6-sulfanylidene]-2-methyl-8-[4-(trifluoromethyl)phenyl]-2H,8H-pyrazolo[3,4-b]indole-5-carboxamide]",100 to 10000
12,"Cn1cc2c3cc(C(=O)N=S4(=O)CC(N)C4)ccc3n(-c3ccc(C(F)(F)F)cc3)c2n1 (centres unmarked) [Example C270, N-(3-amino-1-oxo-1¿6-thietan-1-ylidene)-2-methyl-8-[4-(trifluoromethyl)phenyl]-2H,8H-pyrazolo[3,4-b]indole-5-carboxamide formate]",10 to 100

# Same assay, conditions: Homo sapiens, SK-HEP1, SK-HEP-1 reporter assay; n.d. = value not detectable below threshold given in parentheses; ND = not determinable within the entire range
row,IC50 [nM],SMILES
1,> 30000,"C[C@@H](CO)NS(=O)(=O)c1ccc2c(c1)c1nnn(C)c1n2-c1ccc(C(F)(F)F)cc1 [Example C1, N-[(2S)-1-hydroxypropan-2-yl]-3-methyl-4-[4-(trifluoromethyl)phenyl]-3H,4H-[1,2,3]triazolo[4,5-b]indole-7-sulfonamide]"
2,> 10000,"Cn1cc2c(n1)c1cc(S(=O)(=O)N3C[C@@H](O)C[C@H]3c3ccccc3)ccc1n2-c1ccc(C(F)(F)F)cc1 (single isomer, unassigned) [Example C47]"
3,> 1000,"Cn1cc2c(n1)c1cc(S(=O)(=O)N3C[C@H](O)C[C@H]3c3ccccc3)ccc1n2-c1ccc(C(F)(F)F)cc1 (single isomer, unassigned) [Example C46]"

# Further lines, the molecule ahead of its results:
row,SMILES,IC50 [nM]
1,"C[C@H](CO)NS(=O)(=O)c1ccc2c(c1)c1nnn(C)c1n2-c1ccc(C(F)(F)F)cc1 [Example C13, N-[(2R)-1-hydroxypropan-2-yl]-3-methyl-4-[4-(trifluoromethyl)phenyl]-3H,4H-[1,2,3]triazolo[4,5-b]indole-7-sulfonamide]",> 30000
2,"Cn1nnc2c3cc(S(N)(=O)=O)ccc3n(-c3ccc(C(F)(F)F)cc3)c21 [Example C11, 3-methyl-4-[4-(trifluoromethyl)phenyl]-3H,4H-[1,2,3]triazolo[4,5-b]indole-7-sulfonamide]",> 30000
3,"Cn1cc2c(n1)c1cc(S(=O)(=O)N3C[C@H](O)C[C@@H]3c3ccccc3)ccc1n2-c1ccc(C(F)(F)F)cc1 (single isomer, unassigned) [Example C40]",> 30000

# Same assay, conditions: SK-HEP-1 reporter assay; class symbols
row,IC50 [nM],SMILES
1,100 to 10000,"Cn1cnc2c1c1cc(C3CC(Oc4cncnc4)=NO3)ccc1n2-c1ccc(C(F)(F)F)cc1 (centres unmarked) [Example C215, 5-[(5-{1-methyl-4-[4-(trifluoromethyl)phenyl]-1H,4H-imidazo[4,5-b]indol-7-yl}-4,5-dihydro-1,2-oxazol-3-yl)oxy]pyrimidine]"
